# Data published in patent US10807986B2, “Fused pyrimidine compound or salt thereof” (TAIHO PHARMACEUTICAL CO., LTD., priority 2016, dated 2020).
# Assay: Evaluation of stability in liver microsome
# Details: mouse liver microsome 0.25 mg/mL, test compound 1 μM, 37° C., 30 minutes
# Experimental: Solutions of the test compounds in DMSO/acetonitrile (the final concentration of each test compound was 1 μM, the final concentration of DMSO was 0.01%, and the final concentration of acetonitrile was 1%) were individually added to a liver microsome mixture solution (mouse liver microsome with a final concentration of 0.25 mg/mL, a potassium phosphate buffer with a final concentration of 100 mM, and magnesium chloride with a final concentration of 3 mM), and each mixture was pre-incubated at 37° C. for 5 minutes. […] After incubation at 37° C. for 30 minutes, a double amount of ethanol was added thereto to terminate the reaction, thereby obtaining post-reaction samples. A double amount of ethanol was added to each of the remaining mixture solutions, and a NADPH-generating system was further added thereto, thereby obtaining pre-reaction samples. The pre-reaction samples and post-reaction samples were centrifuged at 2000×g, and their supernatant was filtered through a glass filter. Each filtrate was then introduced into LC-MS/MS, and MS/MS peaks of the test compounds were detected. From the ratio of the post-reaction MS/MS peak to the pre-reaction MS/MS peak of the test compounds, the percentage of the remaining test compounds (remaining %) was calculated.
row,Compound,Remaining (%)
1,"COCc1ccc(NC(=O)c2c(C#Cc3ccc4c(c3)NCCO4)n(C3(C)CC3)c3ncnc(N)c23)cc1 [Example 158, 4-amino-6-((3,4-dihydro-2H-benzo[b][1,4]oxazin-6-yl)ethynyl)-N-(4-(methoxymethyl)phenyl)-7-(1-methylcyclopropyl)-7H-pyrrolo[2,3-d]pyrimidine-5-carboxamide]",85%
2,"COCc1ccc(NC(=O)c2c(C3=CCOCC3)n(C3(C)CC3)c3ncnc(N)c23)cc1 [Example 203, 4-amino-6-(3,6-dihydro-2H-pyran-4-yl)-N-(4-(methoxymethyl)phenyl)-7-(1-methylcyclopropyl)-7H-pyrrolo[2,3-d]pyrimidine-5-carboxamide]",68%
3,"COCc1ccc(NC(=O)c2c(C#Cc3ccsc3)n(C3(C)CC3)c3ncnc(N)c23)cc1 [Example 176, 4-amino-N-(4-(methoxymethyl)phenyl)-7-(1-methylcyclopropyl)-6-(thiophen-3-ylethynyl)-7H-pyrrolo[2,3-d]pyrimidine-5-carboxamide]",70%
4,"COCc1ccc(NC(=O)c2c(C#Cc3cnn(C)c3)n(C3(C)CC3)c3ncnc(N)c23)cc1 [Example 90, 4-amino-N-[4-(methoxymethyl)phenyl]-6-((1-methyl-1H-pyrazol-4-yl)ethynyl)-7-(1-methylcyclopropyl)-7H-pyrrolo[2,3-d]pyrimidine-5-carboxamide]",67%
5,"CCC(O)CC#Cc1c(C(=O)Nc2ccc(COC)cc2)c2c(N)ncnc2n1C1(C)CC1 (centres unmarked) [Example 157, 4-amino-6-(4-hydroxyhex-1-yn-1-yl)-N-(4-(methoxymethyl)phenyl)-7-(1-methylcyclopropyl)-7H-pyrrolo[2,3-d]pyrimidine-5-carboxamide]",59%
6,"COCc1ccc(NC(=O)c2c(OCC3CCOC3)n(C3(C)CC3)c3ncnc(N)c23)cc1 (centres unmarked) [Example 101, 4-amino-N-(4-(methoxymethyl)phenyl)-7-(1-methylcyclopropyl)-6-((tetrahydrofuran-3-yl)methoxy)-7H-pyrrolo[2,3-d]pyrimidine-5-carboxamide]",68%
7,"COCc1ccc(NC(=O)c2c(C#Cc3ccn(C)n3)n(C3(C)CC3)c3ncnc(N)c23)cc1 [Example 92, 4-amino-N-(4-(methoxymethyl)phenyl)-6-((1-methyl-1H-pyrazol-3-yl)ethynyl)-7-(1-methylcyclopropyl)-7H-pyrrolo[2,3-d]pyrimidine-5-carboxamide]",67%
8,"COCc1ccc(NC(=O)c2c(OCC3CCCC3)n(C3(C)CC3)c3ncnc(N)c23)cc1 [Example 140, 4-amino-6-(cyclopentylmethoxy)-N-(4-(methoxymethyl)phenyl)-7-(1-methylcyclopropyl)-7H-pyrrolo[2,3-d] pyrimidine-5-carboxamide]",52%
9,"COCc1ccc(NC(=O)c2c(C#CCC3NC(=O)NC3=O)n(C3(C)CC3)c3ncnc(N)c23)cc1 (centres unmarked) [Example 156, 4-amino-6-(3-(2,5-dioxoimidazolidin-4-yl)prop-1-yn-1-yl)-N-(4-(methoxymethyl)phenyl)-7-(1-methylcyclopropyl)-7H-pyrrolo[2,3-d]pyrimidine-5-carboxamide]",67%
10,"COCc1ccc(NC(=O)c2c(C#Cc3ccn[nH]3)n(C3(C)CC3)c3ncnc(N)c23)cc1 [Example 129, 6-((1H-pyrazol-5-yl)ethynyl)-4-amino-N-(4-(methoxymethyl)phenyl)-7-(1-methylcyclopropyl)-7H-pyrrolo[2,3-d]pyrimidine-5-carboxamide]",54%
11,"COCc1ccc(NC(=O)c2c(-c3cnn(C)c3)n(C3(C)CC3)c3ncnc(N)c23)cc1 [Example 150, 4-amino-N-(4-(methoxymethyl)phenyl)-6-(1-methyl-1H-pyrazol-4-yl)-7-(1-methylcyclopropyl)-7H-pyrrolo[2,3-d]pyrimidine-5-carboxamide]",78%
